Source: US9593084B2 (Parion Sciences, Inc., priority 2012, dated 2017)
Several values for one entry are separate records, joined by “and”; a condition that tells them apart may be missing. Equal values may be shown once. Entries after “also recorded” stand apart in the source; their conditions may differ.

Tests used:
[1] = test system: human bronchial epithelial (HBE) cells; experiment: Airway surface liquid drug clearance and metabolism by human airway epithelium; type: in vitro ADME
Experimental: The disappearance of 33 from the apical surface and airway epithelial metabolism were assessed in human bronchial epithelial (HBE) cells (Table 3). In these experiments 25 μL of a 25 μM solution of ENaC blocker was added to the apical surface of HBE cells grown at an air/liquid interface, and the drug and metabolite concentration in the apical and basolateral compartment was measured over 2 h by UPLC.
Therefore, the compounds of formula (I) have a longer half-life on mucosal surfaces compared to these know compounds as evidenced by the data shown in Table G. The disappearance of Compound 33 from the apical surface and airway epithelial metabolism were assessed in HBE and compared to Comparative Example 1 (Table H). In these experiments 25 μL of a 25 μM solution of ENaC blocker was added to the apical surface of HBE cells grown at an air/liquid interface, and the drug concentration in the apical and basolateral compartment was measured over 2 h by UPLC.

Sheep MCC = experiment: Mucociliary clearance (MCC) studies in sheep; type: in vivo; conditions: for AUC (% CI × h) / Initial Slope (4.0-4.5 h): MCC at 4 h post-dose
Experimental: The animal model that has been used most often to measure changes in MCC is the sheep model. The effect of compounds for enhancing mucociliary clearance (MCC) can be measured using an in vivo model described by Sabater et al., Journal of Applied Physiology, 1999, pp. 2191-2196, incorporated herein by reference.
(§1) In these studies, adult sheep were restrained and nasally intubated with an endotracheal tube. Aerosolized test articles were administered over 10-15 minutes to sheep. Radiolabeled ^99mTc-sulfur colloid (TSC, 3.1 mg/mL; containing approximately 20 mCi) was then administered at a specified time four or eight hours after test article. The radiolabeled aerosol was administered through the endotracheal tube for about 5 minutes. The sheep were then extubated, and total radioactive counts in the lung were measured every 5 minutes for a 1-hour observation period. The rate of radiolabel clearance from the lung is representative of the MCC rate in the animal. The advantage of this system is that it closely simulates the human lung environment. The model also allows for the collection of simultaneous PK/PD information through plasma and urine sampling over the test period. There are also several techniques to measure the drug concentrations on the airway surface during the MCC measurements. These include the collection of exhaled breath condensates or a filter paper method to obtain ASL via bronchoscopy.
The ovine model described above was used to evaluate the in vivo effects (efficacy/durability) of aerosol-delivered test agent on MCC. Treatments consisting of either 4 mL of test agent or test agent in combination with HS were tested. To determine if combining HS with test agent enhanced MCC, HS was administered immediately following test agent administration. Test solutions were aerosolized using a Raindrop nebulizer at a flowrate of eight liters per minute and connected to a dosimetry system consisting of a solenoid valve and a source of compressed air (20 psi). The deposited dose of drug in sheep lungs after an aerosol administration using the Raindrop nebulizer is estimated to be 8-15% of the dose. Using a Raindrop nebulizer, radiolabeled TSC was administered over approximately 3 minutes either 4 or 8 hours after drug treatment to evaluate efficacy/durability. Radioactive counts were measured in a central region in the right lung at 5 min intervals for one hour with a gamma camera. Three methods of analysis were utilized, 1) initial rate of clearance (slope) over the first 30 min fitted using linear regression 2) area under the curve for % clearance over time over one hour, and 3) the maximum clearance obtained in one hour.

[2] = Plasma potassium levels in sheep of the MCC study; type: in vivo
Experimental: as §1
The compound of Comparative Example 1 can be seen on page 15 of US 2005/0080093 and as Compound 2 on page 90 of WO 2008/031048, and as Compound 2 on pages 42-43 of WO 2008/031028. […] In order to evaluate this potential, it is beneficial to have MCC activity in vivo and not cause elevation of plasma potassium at the useful dose. One model to assess this is the sheep MCC model described below.

[3] = HBE cells at air/liquid interface, 25 μL of 25 μM apical, mean ± SD
[4] = HBE cells, 25 μL of 25 μM apical, parent only
[5] = sheep, solution concentration given beside the dose

N=C(NCCCCc1ccc(OC[C@H](N)C(N)=O)cc1)NC(=O)c1nc(Cl)c(N)nc1N [Comparative Example 1, (S)-3,5-diamino-6-chloro-N—(N-(4-(4-(2,3-diamino-3-oxopropoxy)phenyl)butyl)carbamimidoyl)pyrazine-2-carboxamide]
% of Apical Mass as Metabolites (2 h) [1, 3]: 83% and 83.0 ± 3.5%
% on Basolateral Side as Metabolites (2 h) [1, 3]: 94.7 ± 1.0%
% of Initial Apical Mass on Basolateral Side as Parent (2 h) [1, 4]: (1% Parent)
% of Initial Drug Mass on Apical Side as Parent (2 h) [1, 4]: (8% Parent)
fate on the apical side after 2 h incubation ([1]; HBE cells, apical surface, 37° C.): eliminated from the apical side
ED50 (Sheep MCC; Ovis aries, using slope, AUC and Maximum Clearance, read-out: ED50 in the sheep MCC model): ~0.24 µmol/kg
ED50 in the sheep MCC model (solution concentration) (Sheep MCC; approximate ED50 dose as concentration of dosing solution): ~3 mM
AUC (% CI × h) (Sheep MCC; sheep, 24 nmol/kg (300 μM)): 6.9 ± 1.0 (3) % CI × h
Initial Slope (4.0-4.5 h) (Sheep MCC; sheep, 24 nmol/kg (300 μM)): 14.5 ± 1.3 (3)
AUC (% CI × h) (Sheep MCC; sheep, 240 nmol/kg (3 mM)): 14.1 ± 2.2 (6) % CI × h
Initial Slope (4.0-4.5 h) (Sheep MCC; sheep, 240 nmol/kg (3 mM)): 32.2 ± 7.3 (6)
MCC Highest Submaximal Dose (Sheep MCC; [5]): 240 nmol/kg (3 mM)
Therapeutic Ratio (Benefit/Risk) (Sheep MCC; sheep, top dose without plasma potassium elevation vs MCC highest submaximal dose): 0.1
effect on plasma potassium ([2]; sheep of the MCC study, at efficacious dose): causes a rise in plasma potassium; also recorded: elevations of plasma K
Top Dose in Sheep with no Elevation of Plasma Potassium [2, 5]: 24 nmol/kg (300 μM)
